The target in the assay is T1, SIRT1 (Homo sapiens, UniProt Q96EB6).
T1 sequence (Q96EB6 1-747): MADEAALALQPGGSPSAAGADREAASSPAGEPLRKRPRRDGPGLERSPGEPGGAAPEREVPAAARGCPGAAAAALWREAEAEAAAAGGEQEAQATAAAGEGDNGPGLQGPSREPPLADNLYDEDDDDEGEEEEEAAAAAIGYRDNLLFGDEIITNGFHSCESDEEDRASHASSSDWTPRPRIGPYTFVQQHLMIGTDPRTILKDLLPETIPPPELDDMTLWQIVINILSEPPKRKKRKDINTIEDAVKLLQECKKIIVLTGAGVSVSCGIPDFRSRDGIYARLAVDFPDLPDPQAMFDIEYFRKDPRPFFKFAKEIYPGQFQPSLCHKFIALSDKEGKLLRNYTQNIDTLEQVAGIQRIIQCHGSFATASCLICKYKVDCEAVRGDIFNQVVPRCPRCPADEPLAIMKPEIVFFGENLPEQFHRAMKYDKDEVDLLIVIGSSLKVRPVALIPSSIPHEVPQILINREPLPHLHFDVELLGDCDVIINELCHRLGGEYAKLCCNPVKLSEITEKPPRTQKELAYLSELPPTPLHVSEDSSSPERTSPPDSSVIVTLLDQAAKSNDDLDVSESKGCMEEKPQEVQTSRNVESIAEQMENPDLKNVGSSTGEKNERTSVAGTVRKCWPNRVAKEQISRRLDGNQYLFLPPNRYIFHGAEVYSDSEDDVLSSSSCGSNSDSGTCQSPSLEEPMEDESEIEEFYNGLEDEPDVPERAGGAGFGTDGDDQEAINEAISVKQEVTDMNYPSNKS
As to the kind of experiment: Mass spectrometry based SIRT1 deacetylase activation assay (acetylated p53-derived peptide substrate). The format is biochemical. To be noted: 0.5 μM peptide substrate, 120 μM βNAD+, 10 nM SIRT1, 25 min at 25° C.; for EC1.5: read-out: EC1.5.

Results on 41 molecules are retold here after patent US8846947B2, “Benzimidazoles and related analogs as sirtuin modulators” (GlaxoSmithKline LLC, priority 2008, dated 2014).

Where only a bound is given, the exact number is not on record here.

In the case of `O=C(Nc1nccs1)c1cccc2[nH]c(-c3cc(Cl)ccc3OCCN3CCOCC3)nc12` [Compound 501], the “Fold Act. (percent maximum fold activation)” value is “A (Fold activation >200%)” and the EC1.5 is less than 1000 nM.
Take `O=C(Nc1ccccn1)c1cccc2[nH]c(-c3cc(Cl)ccc3OCCN3CCOCC3)nc12` [Compound 502]: the “Fold Act. (percent maximum fold activation)” value is reported as “A (Fold activation >200%)” and the EC1.5 was 1000 to 25000 nM.
For the molecule `O=C(Nc1nccs1)c1cccc2[nH]c(-c3ccc(F)cc3OCCN3CCOCC3)nc12` [Compound 503], the “Fold Act. (percent maximum fold activation)” value is recorded as “B (Fold Activation <200%)” and the EC1.5 lay in the range of 1000 to 25000 nM.
On the same counts, the results for `O=C(Nc1ccccn1)c1cccc2[nH]c(-c3ccc(F)cc3OCCN3CCOCC3)nc12` [Compound 504] are “B (Fold Activation <200%)” and 1000 to 25000 nM.
On the same counts, the results for `Cc1cc(Cl)cc(-c2nc3c(C(=O)Nc4nccs4)cccc3[nH]2)c1OCCN1CCOCC1` [Compound 505] are “A (Fold activation >200%)” and 1000 to 25000 nM.
Regarding `Cc1cc(Cl)cc(-c2nc3c(C(=O)Nc4ccccn4)cccc3[nH]2)c1OCCN1CCOCC1` [Compound 506], the “Fold Act. (percent maximum fold activation)” value is given as “B (Fold Activation <200%)” and the EC1.5 was in the range of 1000 to 25000 nM.
The corresponding values for `O=C(Nc1nccs1)c1cccc2[nH]c(-c3ccccc3OCCN3CC[C@@H](F)C3)nc12` [Compound 507] are “B (Fold Activation <200%)” and 1000 to 25000 nM.
The corresponding values for `O=C(Nc1ccccn1)c1cccc2[nH]c(-c3ccccc3OCCN3CC[C@@H](F)C3)nc12` [Compound 508] are “A (Fold activation >200%)” and 1000 to 25000 nM.
The corresponding values for `O=C(Nc1nccs1)c1cccc2[nH]c(-c3ccccc3OCCN3CC[C@H](F)C3)nc12` [Compound 509] are “B (Fold Activation <200%)” and less than 1000 nM.
As for `O=C(Nc1ccccn1)c1cccc2[nH]c(-c3ccccc3OCCN3CC[C@H](F)C3)nc12` [Compound 510], the “Fold Act. (percent maximum fold activation)” value is “B (Fold Activation <200%)” and the EC1.5 is 1000 to 25000 nM.
For the molecule `O=C(Nc1nccs1)c1cccc2[nH]c(-c3cc(F)ccc3C(F)F)nc12` [Compound 511], the “Fold Act. (percent maximum fold activation)” value is reported as “A (Fold activation >200%)” and the EC1.5 was 1000 to 25000 nM.
Regarding `Cc1cnc(NC(=O)c2cccc3[nH]c(-c4cc(F)ccc4C(F)F)nc23)s1` [Compound 512], the “Fold Act. (percent maximum fold activation)” value is recorded as “A (Fold activation >200%)” and the EC1.5 was less than 1000 nM.
The corresponding values for `O=C(Nc1ccccn1)c1cccc2[nH]c(-c3cc(F)ccc3C(F)F)nc12` [Compound 513] are “A (Fold activation >200%)” and less than 1000 nM.
The corresponding values for `O=C(Nc1nccs1)c1cccc2[nH]c(-c3ccccc3C(F)F)nc12` [Compound 514] are “A (Fold activation >200%)” and less than 1000 nM.
Take `Cc1cnc(NC(=O)c2cccc3[nH]c(-c4ccccc4C(F)F)nc23)s1` [Compound 515]: the “Fold Act. (percent maximum fold activation)” value was “A (Fold activation >200%)” and the EC1.5 was less than 1000 nM.
On the same counts, the results for `O=C(Nc1ccccn1)c1cccc2[nH]c(-c3ccccc3C(F)F)nc12` [Compound 516] are “A (Fold activation >200%)” and less than 1000 nM.
On the same counts, the results for `CS(=O)(=O)c1ccccc1-c1nc2c(C(=O)Nc3nccs3)cccc2[nH]1` [Compound 517] are “A (Fold activation >200%)” and 1000 to 25000 nM.
The corresponding values for `CS(=O)(=O)c1ccccc1-c1nc2c(C(=O)Nc3cccnc3)cccc2[nH]1` [Compound 518] are “A (Fold activation >200%)” and 1000 to 25000 nM.
As to `CS(=O)(=O)c1ccccc1-c1nc2c(C(=O)Nc3ccccn3)cccc2[nH]1` [Compound 519], the “Fold Act. (percent maximum fold activation)” value was “A (Fold activation >200%)” and the EC1.5 was less than 1000 nM.
For the molecule `CS(=O)(=O)c1cc(Cl)ccc1-c1nc2c(C(=O)Nc3nccs3)cccc2[nH]1` [Compound 520], the “Fold Act. (percent maximum fold activation)” value is given as “A (Fold activation >200%)” and the EC1.5 lay in the range of 1000 to 25000 nM.
The corresponding values for `CS(=O)(=O)c1cc(Cl)ccc1-c1nc2c(C(=O)Nc3cccnc3)cccc2[nH]1` [Compound 521] are “A (Fold activation >200%)” and 1000 to 25000 nM.
On the same counts, the results for `CS(=O)(=O)c1cc(Cl)ccc1-c1nc2c(C(=O)Nc3ccccn3)cccc2[nH]1` [Compound 522] are “A (Fold activation >200%)” and less than 1000 nM.
With `Cc1cc(NC(=O)c2cccc3[nH]c(-c4cnc5c(c4)OCCN5C)nc23)n(C)n1` [Compound 523], the “Fold Act. (percent maximum fold activation)” value is “B (Fold Activation <200%)” and the EC1.5 is greater than 25000 nM.
The corresponding values for `O=C(Nc1cccc(OC2CCNC2)c1)c1cccc2[nH]c(-c3cc(F)ccc3C(F)(F)F)nc12` (stereo not shown) [Compound 524] are “A (Fold activation >200%)” and less than 1000 nM.
The corresponding values for `O=C(Nc1cccc(OC2CCNCC2)c1)c1cccc2[nH]c(-c3cc(F)ccc3C(F)(F)F)nc12` [Compound 525] are “A (Fold activation >200%)” and less than 1000 nM.
The corresponding values for `O=C(Nc1cccc(OC2CCNC2)c1)c1cccc2[nH]c(-c3ccccc3C(F)(F)F)nc12` (stereo not shown) [Compound 526] are “A (Fold activation >200%)” and less than 1000 nM.
For `CN1CCN(c2cccc(-c3nc4c(C(=O)Nc5nccs5)cccc4[nH]3)c2)CC1` [Compound 527], the “Fold Act. (percent maximum fold activation)” value is “A (Fold activation >200%)” and the EC1.5 is less than 1000 nM.
On the same counts, the results for `CN1CCN(c2cccc(-c3nc4c(C(=O)Nc5ccccn5)cccc4[nH]3)c2)CC1` [Compound 528] are “A (Fold activation >200%)” and less than 1000 nM.
On the same counts, the results for `CC(C)N1CCN(c2cccc(-c3nc4c(C(=O)Nc5nccs5)cccc4[nH]3)c2)CC1` [Compound 529] are “A (Fold activation >200%)” and less than 1000 nM.
On the same counts, the results for `CC(C)N1CCN(c2cccc(-c3nc4c(C(=O)Nc5ccccn5)cccc4[nH]3)c2)CC1` [Compound 530] are “A (Fold activation >200%)” and less than 1000 nM.
For the molecule `O=C(Nc1cccnc1)c1cccc2[nH]c(-c3cccc4c3OC(F)(F)O4)nc12` [Compound 531], the “Fold Act. (percent maximum fold activation)” value is “A (Fold activation >200%)” and the EC1.5 was less than 1000 nM.
In the case of `Cc1cnc(NC(=O)c2cccc3[nH]c(-c4cccc5c4OC(F)(F)O5)nc23)s1` [Compound 532], the “Fold Act. (percent maximum fold activation)” value was “A (Fold activation >200%)” and the EC1.5 was less than 1000 nM.
The corresponding values for `O=C1COc2ccc(-c3nc4c(C(=O)Nc5cccnc5)cccc4[nH]3)cc2N1` [Compound 533] are “B (Fold Activation <200%)” and greater than 25000 nM.
On the same counts, the results for `Cc1cnc(NC(=O)c2cccc3[nH]c(-c4ccc5c(c4)NC(=O)CO5)nc23)s1` [Compound 534] are “A (Fold activation >200%)” and less than 1000 nM.
On the same counts, the results for `O=C(Nc1ccccn1)c1cccc2[nH]c(-c3ccc(OC4CCNCC4)cc3)nc12` [Compound 535] are “A (Fold activation >200%)” and less than 1000 nM.
Consider `O=C(Nc1cccnc1)c1cccc2[nH]c(-c3ccc(OC4CCNCC4)cc3)nc12` [Compound 536], for which the “Fold Act. (percent maximum fold activation)” value is on record as “A (Fold activation >200%)” and the EC1.5 lay within 1000 to 25000 nM.
The corresponding values for `Cc1cnc(NC(=O)c2cccc3[nH]c(-c4ccc(OC5CCNCC5)cc4)nc23)s1` [Compound 537] are “A (Fold activation >200%)” and less than 1000 nM.
The corresponding values for `O=C(Nc1ccccn1)c1cccc2[nH]c(-c3ccccc3OC3CCNCC3)nc12` [Compound 538] are “A (Fold activation >200%)” and 1000 to 25000 nM.
The corresponding values for `O=C(Nc1cccnc1)c1cccc2[nH]c(-c3ccccc3OC3CCNCC3)nc12` [Compound 539] are “A (Fold activation >200%)” and 1000 to 25000 nM.
Consider `O=C(Nc1ccccn1)c1cccc2[nH]c(-c3ccnc(N4CCCC4)c3)nc12` [Compound 540], for which the “Fold Act. (percent maximum fold activation)” value is on record as “A (Fold activation >200%)” and the EC1.5 was less than 1000 nM.
The corresponding values for `O=C(Nc1ccc(CN2CCCC2)cn1)c1cccc2[nH]c(-c3ccccc3C(F)(F)F)nc12` [Compound 541] are “A (Fold activation >200%)” and less than 1000 nM.
